Measured values reported in patent publication US9700047B2, “Macrocyclic picolinamides as fungicides” (Dow AgroSciences LLC, priority 2014, dated 2017).
Read-outs that look alike come from different tables or passages of the source.

Tested on: Puccinia triticina; Synonym: Puccinia recondita f sp. tritici
Experiment: Wheat brown rust (PUCCRT) disease control on wheat seedlings
Assay type: in vivo
Details: for pest or weed control at 100 ppm: High Volume activity at 100 ppm; for pest or weed control at 121.5 g/ha: Low Volume activity at 121.5 g/H
Description: All fungicides were evaluated using the aforementioned method for their activity vs. all target diseases, unless stated otherwise. Wheat leaf blotch and brown rust activity were also evaluated using track spray applications, in which case the fungicides were formulated as EC formulations, containing 0.1% Trycol 5941 in the spray solutions. Wheat plants (variety Yuma) were grown from seed in a greenhouse in 50% mineral soil/50% soil-less Metro mix until the first leaf was fully emerged, with 7-10 seedlings per pot. These plants were inoculated with an aqueous spore suspension of Puccinia triticina either prior to or after fungicide treatments. […] The plants were then transferred to a greenhouse set at 24° C. for disease to develop. Fungicide formulation, application and disease assessment followed the procedures as described in the Example A.

[1] = 24 h, 1 Day Protectant, read-out: PUCCRT 1DP % Control rating
[2] = 72 h, 3 Day Curative, read-out: PUCCRT 3DC % Control rating

SMILES	pest or weed control at 100 ppm [1]	pest or weed control at 121.5 g/ha [1]	pest or weed control at 100 ppm [2]	pest or weed control at 121.5 g/ha [2]
CCCC[C@@H]1[C@@H](Cc2ccccc2)CCC[C@H](NC(=O)c2nccc(OC)c2OC(C)=O)C(=O)O[C@H]1C [Compound 1, 2-(((3S,7R,8R,9S)-7-benzyl-8-butyl-9-methyl-2-oxooxonan-3-yl)carbamoyl)-4-methoxypyridin-3-yl acetate]	> 70%	> 70%	> 70%	< 70%
CCCC[C@@H]1[C@@H](Cc2ccccc2)CCC[C@H](NC(=O)c2nccc(OC)c2OCOC(C)=O)C(=O)O[C@H]1C [Compound 2, ((2-(((3S,7R,8R,9S)-7-benzyl-8-butyl-9-methyl-2-oxooxonan-3-yl)carbamoyl)-4-methoxypyridin-3-yl)oxy)methyl acetate]	> 70%	> 70%	> 70%	< 70%
COc1ccnc(C(=O)N[C@H]2CCC[C@H](CCC(C)C)[C@@H](Cc3ccccc3)[C@H](C)OC2=O)c1OC(C)=O [Compound 4]	–	> 70%	–	< 70%
COc1ccnc(C(=O)N[C@H]2CCC[C@H](Cc3ccccc3)[C@@H](Cc3ccccc3)[C@H](C)OC2=O)c1OC(C)=O [Compound 5]	–	> 70%	–	> 70%
COc1ccnc(C(=O)N[C@H]2CCC[C@H](Cc3ccccc3)[C@@H](Cc3ccccc3)[C@H](C)OC2=O)c1OCOC(C)=O [Compound 6]	–	> 70%	–	> 70%
COc1ccnc(C(=O)N[C@H]2CCC[C@H](Cc3ccccc3)[C@@H](Cc3ccccc3)[C@H](C)OC2=O)c1OCOC(=O)C(C)C [Compound 7, ((2-(((3S,7R,8R,9S)-7,8-dibenzyl-9-methyl-2-oxooxonan-3-yl)carbamoyl)-4-methoxypyridin-3-yl)oxy)methyl isobutyrate]	–	> 70%	–	> 70%
CCOCC(=O)OCOc1c(OC)ccnc1C(=O)N[C@H]1CCC[C@H](Cc2ccccc2)[C@@H](Cc2ccccc2)[C@H](C)OC1=O [Compound 8, ((2-(((3S,7R,8R,9S)-7,8-dibenzyl-9-methyl-2-oxooxonan-3-yl)carbamoyl)-4-methoxypyridin-3-yl)oxy)methyl 2-ethoxyacetate]	–	> 70%	–	< 70%
COc1ccnc(C(=O)N[C@H]2CCC[C@H](Cc3ccccc3)[C@@H](C3CCCC3)[C@H](C)OC2=O)c1OC(C)=O [Compound 9]	–	> 70%	–	< 70%
COc1ccnc(C(=O)N[C@H]2CCC[C@H](Cc3ccccc3)[C@@H](C3CCCC3)[C@H](C)OC2=O)c1OCOC(C)=O [Compound 10]	–	> 70%	–	> 70%
COc1ccnc(C(=O)N[C@H]2CCC[C@H](Cc3ccc(Cl)cc3)[C@@H](CC(C)C)[C@H](C)OC2=O)c1OCOC(C)=O [Compound 12]	–	> 70%	–	< 70%
COc1ccnc(C(=O)N[C@H]2CCC[C@H](Cc3ccc(Cl)cc3)[C@@H](CC(C)C)[C@H](C)OC2=O)c1OC(C)=O [Compound 13]	–	> 70%	–	< 70%
COc1ccnc(C(=O)N[C@H]2CCC[C@H](Cc3ccccc3)[C@@H](CC(C)C)[C@H](C)OC2=O)c1OCOC(C)=O [Compound 14]	–	> 70%	–	< 70%
COc1ccnc(C(=O)N[C@H]2CCC[C@H](Cc3ccccc3)[C@@H](CCc3ccccc3)[C@H](C)OC2=O)c1OCOC(C)=O [Compound 15]	–	> 70%	–	< 70%
CCOCC(=O)OCOc1c(OC)ccnc1C(=O)N[C@H]1CCC[C@H](Cc2ccccc2)[C@@H](CCc2ccccc2)[C@H](C)OC1=O [Compound 16]	–	> 70%	–	> 70%
COc1ccnc(C(=O)N[C@H]2CCC[C@H](Cc3ccccc3)[C@@H](CCc3ccccc3)[C@H](C)OC2=O)c1OCOC(=O)C(C)C [Compound 17]	–	> 70%	–	< 70%
COc1ccnc(C(=O)N[C@H]2CCC[C@H](Cc3ccccc3)[C@@H](CCc3ccccc3)[C@H](C)OC2=O)c1OC(C)=O [Compound 18]	–	< 70%	–	< 70%
COc1ccnc(C(=O)N[C@H]2CCC[C@H](Cc3ccc(Cl)cc3)[C@@H](Cc3ccccc3)[C@H](C)OC2=O)c1OCOC(C)=O [Compound 19]	–	> 70%	–	< 70%
CCOCC(=O)OCOc1c(OC)ccnc1C(=O)N[C@H]1CCC[C@H](Cc2ccc(Cl)cc2)[C@@H](Cc2ccccc2)[C@H](C)OC1=O [Compound 20]	–	> 70%	–	> 70%
COc1ccnc(C(=O)N[C@H]2CCC[C@H](Cc3ccc(Cl)cc3)[C@@H](Cc3ccccc3)[C@H](C)OC2=O)c1OC(C)=O [Compound 21]	–	> 70%	–	< 70%
COc1ccnc(C(=O)N[C@H]2CCC[C@H](Cc3ccc(C(F)(F)F)cc3)[C@@H](CC(C)C)[C@H](C)OC2=O)c1OC(C)=O [Compound 22]	–	> 70%	–	< 70%

SMILES	pest or weed control at 100 ppm [1]	pest or weed control at 121.5 g/ha [1]	pest or weed control at 100 ppm [2]	pest or weed control at 121.5 g/ha [2]
COc1ccnc(C(=O)N[C@H]2CCC[C@H](Cc3ccc(C(F)(F)F)cc3)[C@@H](CC(C)C)[C@H](C)OC2=O)c1OCOC(C)=O [Compound 23]	–	> 70%	–	< 70%
COc1ccnc(C(=O)N[C@H]2CCC[C@H](Cc3ccc(C(F)(F)F)cc3)[C@@H](CC(C)C)[C@H](C)OC2=O)c1OCOC(=O)C(C)C [Compound 24]	–	< 70%	–	< 70%
COc1ccnc(C(=O)N[C@H]2CCC[C@H](Cc3ccc(C(F)(F)F)cc3)[C@@H](Cc3ccccc3)[C@H](C)OC2=O)c1OC(C)=O [Compound 25]	–	< 70%	–	< 70%
COc1ccnc(C(=O)N[C@H]2CCC[C@H](Cc3ccc(C(F)(F)F)cc3)[C@@H](Cc3ccccc3)[C@H](C)OC2=O)c1OCOC(C)=O [Compound 26]	–	> 70%	–	< 70%
COc1ccnc(C(=O)N[C@H]2CCC[C@H](Cc3ccc(C(F)(F)F)cc3)[C@@H](Cc3ccccc3)[C@H](C)OC2=O)c1OCOC(=O)C(C)C [Compound 27]	–	> 70%	–	< 70%
COc1ccnc(C(=O)N[C@H]2CCC[C@H](Cc3ccc(Cl)cc3)[C@@H](C3CCCC3)[C@H](C)OC2=O)c1OC(C)=O [Compound 28]	–	> 70%	–	< 70%
COc1ccnc(C(=O)N[C@H]2CCC[C@H](Cc3ccc(Cl)cc3)[C@@H](C3CCCC3)[C@H](C)OC2=O)c1OCOC(C)=O [Compound 29]	–	> 70%	–	< 70%
COc1ccnc(C(=O)N[C@H]2CCC[C@H](Cc3ccc(Cl)cc3)[C@@H](C3CCCC3)[C@H](C)OC2=O)c1OCOC(=O)C(C)C [Compound 30]	–	< 70%	–	< 70%
CCOCC(=O)OCOc1c(OC)ccnc1C(=O)N[C@H]1CCC[C@H](Cc2ccc(Cl)cc2)[C@@H](C2CCCC2)[C@H](C)OC1=O [Compound 31]	–	> 70%	–	< 70%
COc1ccnc(C(=O)N[C@H]2CCC[C@H](CCCc3ccccc3)[C@@H](CCc3ccccc3)[C@H](C)OC2=O)c1OCOC(C)=O [Compound 32]	–	> 70%	–	< 70%
COc1ccnc(C(=O)N[C@H]2CCC[C@H](CCCc3ccccc3)[C@@H](CCc3ccccc3)[C@H](C)OC2=O)c1OC(C)=O [Compound 33]	–	< 70%	–	< 70%
COc1ccnc(C(=O)N[C@H]2CCC[C@H](CCC(C)C)[C@@H](CCc3ccccc3)[C@H](C)OC2=O)c1OCOC(C)=O [Compound 34]	–	> 70%	–	< 70%
CCOCC(=O)OCOc1c(OC)ccnc1C(=O)N[C@H]1CCC[C@H](CCC(C)C)[C@@H](CCc2ccccc2)[C@H](C)OC1=O [Compound 35]	–	> 70%	–	< 70%
COc1ccnc(C(=O)N[C@H]2CCC[C@H](CCC(C)C)[C@@H](CCc3ccccc3)[C@H](C)OC2=O)c1OC(C)=O [Compound 36]	–	> 70%	–	< 70%
CCC[C@H]1CCC[C@H](NC(=O)c2nccc(OC)c2OCOC(C)=O)C(=O)O[C@@H](C)[C@@H]1Cc1ccccc1 [Compound 37]	–	> 70%	–	> 70%
CCC[C@H]1CCC[C@H](NC(=O)c2nccc(OC)c2OC(C)=O)C(=O)O[C@@H](C)[C@@H]1Cc1ccccc1 [Compound 38]	–	> 70%	–	> 70%
COc1ccnc(C(=O)N[C@H]2CCC[C@H](Cc3ccc(C(F)(F)F)cc3)[C@@H](Cc3ccc(F)cc3)[C@H](C)OC2=O)c1OCOC(C)=O [Compound 39]	–	< 70%	–	< 70%
COc1ccnc(C(=O)N[C@H]2CCC[C@H](Cc3ccc(C(F)(F)F)cc3)[C@@H](Cc3ccc(F)cc3)[C@H](C)OC2=O)c1OC(C)=O [Compound 40]	–	< 70%	–	< 70%
COc1ccnc(C(=O)N[C@H]2CCC[C@H](Cc3ccc(C(F)(F)F)cc3)[C@@H](Cc3ccc(F)cc3)[C@H](C)OC2=O)c1OCOC(=O)C(C)C [Compound 41]	–	< 70%	–	< 70%
